Data published in BindingDB's records for doi:10.1016/S0960-894X(97)10014-2 (1997).

Test: Inhibition of ADP induced platelet aggregation in human platelet-rich plasma (PRP)
N=C(N)c1ccc(COc2ccc3c(c2)CCN(CCC(=O)O)C3=O)cc1 [3-[6-(4-Carbamimidoyl-benzyloxy)-1-oxo-3,4-dihydro-1H-isoquinolin-2-yl]-propionic acid] gave an IC50 of 420 nM.

Test: Inhibition of ADP induced platelet aggregation in human platelet-rich plasma (PRP).
COc1ccc(C(CC(=O)O)N2CCc3cc(OCc4ccc(C(=N)N)cc4)ccc3C2=O)cc1 (stereo not drawn) [3-[6-(4-Carbamimidoyl-benzyloxy)-1-oxo-3,4-dihydro-1H-isoquinolin-2-yl]-3-(4-methoxy-phenyl)-propionic acid] showed an IC50 of 260 nM. For N=C(N)c1ccc(COc2ccc3c(c2)CCN(C(CC(=O)O)c2ccccc2)C3=O)cc1 (stereo not drawn) [3-[6-(4-Carbamimidoyl-benzyloxy)-1-oxo-3,4-dihydro-1H-isoquinolin-2-yl]-3-phenyl-propionic acid], the IC50 was 200 nM. With COCCOCC(CC(=O)O)N1CCc2cc(OCc3ccc(C(=N)N)cc3)ccc2C1=O (stereo not drawn) [3-[6-(4-Carbamimidoyl-benzyloxy)-1-oxo-3,4-dihydro-1H-isoquinolin-2-yl]-4-(2-methoxy-ethoxy)-butyric acid] the IC50 was 680 nM. Compound CCOCCCC(CC(=O)O)N1CCc2cc(OCc3ccc(C(=N)N)cc3)ccc2C1=O (stereo not drawn) [3-[6-(4-Carbamimidoyl-benzyloxy)-1-oxo-3,4-dihydro-1H-isoquinolin-2-yl]-6-ethoxy-hexanoic acid] has an IC50 of 470 nM. COCCCC(CC(=O)O)N1CCc2cc(OCc3ccc(C(=N)N)cc3)ccc2C1=O (stereo not drawn) [3-[6-(4-Carbamimidoyl-benzyloxy)-1-oxo-3,4-dihydro-1H-isoquinolin-2-yl]-6-methoxy-hexanoic acid] showed an IC50 of 600 nM. Work on CCCCC(CC(=O)O)N1CCc2cc(OCc3ccc(C(=N)N)cc3)ccc2C1=O (stereo not drawn) [3-[6-(4-Carbamimidoyl-benzyloxy)-1-oxo-3,4-dihydro-1H-isoquinolin-2-yl]-heptanoic acid] yielded an IC50 of 600 nM. Work on CCCC(CC(=O)O)N1CCc2cc(OCc3ccc(C(=N)N)cc3)ccc2C1=O (stereo not drawn) [3-[6-(4-Carbamimidoyl-benzyloxy)-1-oxo-3,4-dihydro-1H-isoquinolin-2-yl]-hexanoic acid] yielded an IC50 of 230 nM. In the case of CCCCCCC(CC(=O)O)N1CCc2cc(OCc3ccc(C(=N)N)cc3)ccc2C1=O (stereo not drawn) [3-[6-(4-Carbamimidoyl-benzyloxy)-1-oxo-3,4-dihydro-1H-isoquinolin-2-yl]-nonanoic acid], the IC50 is reported as 3000 nM. Work on CCCCCC(CC(=O)O)N1CCc2cc(OCc3ccc(C(=N)N)cc3)ccc2C1=O (stereo not drawn) [3-[6-(4-Carbamimidoyl-benzyloxy)-1-oxo-3,4-dihydro-1H-isoquinolin-2-yl]-octanoic acid] yielded an IC50 of 570 nM. Compound CCC(CC(=O)O)N1CCc2cc(OCc3ccc(C(=N)N)cc3)ccc2C1=O (stereo not drawn) [3-[6-(4-Carbamimidoyl-benzyloxy)-1-oxo-3,4-dihydro-1H-isoquinolin-2-yl]-pentanoic acid] has an IC50 of 300 nM. With COC(=O)c1ccc(C(CC(=O)O)N2CCc3cc(OCc4ccc(C(=N)N)cc4)ccc3C2=O)cc1 (stereo not drawn) [4-{1-[6-(4-Carbamimidoyl-benzyloxy)-1-oxo-3,4-dihydro-1H-isoquinolin-2-yl]-2-carboxy-ethyl}-benzoic acid methyl ester] the IC50 was 220 nM. N=C(N)c1ccc(COc2ccc3c(c2)CCN(CC(=O)O)C3=O)cc1 [[6-(4-Carbamimidoyl-benzyloxy)-1-oxo-3,4-dihydro-1H-isoquinolin-2-yl]-acetic acid] gave an IC50 of 30000 nM.
